The test system of experiment [1] is murine P388 lymphocytic leukemia (PS cell line). Put plainly: inhibition of growth of PS tumor cells in culture (ED50). Type of experiment: cell-based. To be noted: for IC50: Mus musculus. The text has this:
(§1) The isolation and purification methods chosen can be monitored at each step by performing in vitro and/or in vivo antitumor tests as described by R. I. Geran, N. H. Greenberg, M. M. MacDonald, A. M. Schumacher and B. S. Abbot in Cancer Chemother. Rep. Part 3, Vol. 3 (2): 1-103 (1972); and by Schmidt, J. M.; Pettit, G. R. in Experimentia, 34: 659-660 (1978). Such tests include the determination of the concentration of active material rquired to inhibit the growth of tumor cells in culture, (e.g., the concentration required to inhibit growth by 50 percent or the ED50) and of the dose of active material required to prolong the life of mice bearing transplanted tumors.

For the next experiment, the system named is P 388 (PS) mouse tumor. Description: P 388 (PS) mouse tumor test, life extension in vivo.
Source text: The dried methylene chloride extracts (derived from the shipping solution and from extraction of the chopped animals) were further separated by taking small portions and subjecting each to solvent partitioning beginning with methanol:water (9:1)/hexane (4 times). […] The aqueous mthanol layers were further diluted with water to a ratio of 8:2 and were extracted repeatedly with carbon tetrachloride (9 times). The carbon tetrachloride extracts were dried and assayed for antitumor activity.
as §1

SMILES strings stand for the structures. Converted amounts (≈) assume the structure as drawn.

The results in this text go back to patent US4611066A, “Bryostatins 4 to 8” (Arizona State University, priority 1984, dated 1986).

The IC50 is the concentration that inhibits the measured activity by half. A higher IC50 goes with weaker potency. Molecule `CCCC(=O)OC1/C(=C/C(=O)OC)CC2C[C@H]([C@@H](C)O)OC(=O)C[C@H](O)C[C@@H]3C[C@H](OC(=O)CCC)C(C)(C)[C@](O)(C[C@@H]4CC(=CC(=O)OC)CC(/C=C/C(C)(C)C1(O)O2)O4)O3` (some centres unmarked) [Bryostatin 8] gave an IC50 in experiment [1] (murine P388 lymphocytic leukemia assay (PS cell line), unit inferred) of 1.3 ng/mL (≈ 1.48 nM). In turn, `CCCC(=O)O[C@H]1C[C@H]2C[C@@H](O)CC(=O)O[C@@H]([C@@H](C)O)C[C@@H]3C/C(=C\C(=O)OC)[C@H](OC(C)=O)[C@@](O)(O3)C(C)(C)/C=C/[C@H]3C/C(=C\C(=O)OC)C[C@@H](C[C@](O)(O2)C1(C)C)O3` [Bryostatin 6] gave an ED50 in experiment [1] (PS cell line) of 3 ng/mL (≈ 3.52 nM). In the experiment with P 388 (PS) mouse tumor (at 185 μg/kg), the “in vivo life extension” value was 82%. As to `CCCC(=O)OC1/C(=C/C(=O)OC)CC2C[C@H]([C@@H](C)O)OC(=O)C[C@H](O)C[C@@H]3C[C@H](OC(=O)CC(C)C)C(C)(C)[C@](O)(C[C@@H]4CC(=CC(=O)OC)CC(/C=C/C(C)(C)C1(O)O2)O4)O3` (some centres unmarked) [Bryostatin 4], the “increase in life extension” value in the experiment with P 388 (PS) mouse tumor (at 46 μg/kg) was found to be 62%. Molecule `COC(=O)C=C1CC2/C=C/C(C)(C)C3(O)OC(C/C(=C\C(=O)OC)C3OC(C)=O)C[C@H]([C@@H](C)O)OC(=O)C[C@H](O)C[C@@H]3C[C@H](OC(C)=O)C(C)(C)[C@](O)(C[C@H](C1)O2)O3` (some centres unmarked) [Bryostatin 7] yielded an IC50 in experiment [1] (P388, PS cell line) of 0.026 ng/mL (≈ 0.0315 nM). Also, in the experiment on P 388 (PS) mouse tumor (at 92 μg/kg), the “in vivo life extension” value is given as 77%. `COC(=O)C=C1CC2/C=C/C(C)(C)C3(O)OC(C/C(=C\C(=O)OC)C3OC(C)=O)C[C@H]([C@@H](C)O)OC(=O)C[C@H](O)C[C@@H]3C[C@H](OC(=O)CC(C)C)C(C)(C)[C@](O)(C[C@H](C1)O2)O3` (some centres unmarked) [Bryostatin 5] gave an IC50 in experiment [1] (P388, PS cell line) of 0.26 to 1.3 ng/mL (≈ 0.3 to 1.5 nM). Besides, the “in vivo life extension” value in the experiment with P 388 (PS) mouse tumor (at 185 μg/kg) came out at 88%.
